Reference: the supplement of paper PMC8612539
≈ marks a conversion by molar mass, not a printed value.

Test system: Escherichia coli
Assay: minimum inhibitory concentration (MIC)
Protocol: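 Broth microdilution MIC (Sensititre BOPO7F bovine plate, CLSI methods) of 19 antimicrobials against field isolates of P. multocida, M. haemolytica, H. somni (deep nasopharyngeal swabs) and E. coli, Enterococcus spp. (rectal swabs) from weaned dairy heifers. Incubation 16-24 h at 35 C. MIC is the lowest concentration preventing visible growth. Values with <= or > lie at the tested range limits. Trimethoprim-sulfamethoxazole is given as the trimethoprim component of a 1:19 mixture.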

CN(C)[C@@H]1C(O)=C(C(N)=O)C(=O)[C@@]2(O)C(O)=C3C(=O)c4c(O)cccc4[C@@](C)(O)[C@H]3C[C@@H]12 [Tetracycline]
Settings | minimum inhibitory concentration [µg/mL]
isolate (source animal id): 8 | > 8
isolate (source animal id): 9 | > 8
isolate (source animal id): 10 | > 8
isolate (source animal id): 11 | 1 (≈ 2.25 µM)
isolate (source animal id): 12 | > 8
isolate (source animal id): 13 | > 8
isolate (source animal id): 14 | > 8
isolate (source animal id): 15 | > 8
isolate (source animal id): 16 | > 8
isolate (source animal id): 98 | > 8
isolate (source animal id): 99 | 2 (≈ 4.5 µM)
isolate (source animal id): 100 | > 8
isolate (source animal id): 101 | > 8
isolate (source animal id): 102 | > 8
isolate (source animal id): 103 | > 8
isolate (source animal id): 104 | > 8
isolate (source animal id): 105 | > 8
isolate (source animal id): 106 | > 8
isolate (source animal id): 107 | > 8
isolate (source animal id): 108 | > 8
isolate (source animal id): 109 | > 8
isolate (source animal id): 110 | > 8
isolate (source animal id): 111 | > 8
isolate (source animal id): 112 | > 8
isolate (source animal id): 113 | > 8
isolate (source animal id): 114 | > 8
isolate (source animal id): 115 | > 8
isolate (source animal id): 116 | > 8
isolate (source animal id): 117 | > 8
isolate (source animal id): 118 | > 8
isolate (source animal id): 119 | > 8
isolate (source animal id): 120 | > 8
isolate (source animal id): 121 | > 8
isolate (source animal id): 122 | > 8
isolate (source animal id): 123 | > 8
isolate (source animal id): 124 | > 8
isolate (source animal id): 125 | > 8
isolate (source animal id): 126 | > 8
isolate (source animal id): 127 | > 8
isolate (source animal id): 128 | > 8
isolate (source animal id): 129 | > 8
isolate (source animal id): 130 | > 8
isolate (source animal id): 131 | > 8
isolate (source animal id): 132 | > 8
isolate (source animal id): 133 | > 8
isolate (source animal id): 134 | > 8
isolate (source animal id): 135 | 2 (≈ 4.5 µM)
isolate (source animal id): 136 | > 8
isolate (source animal id): 137 | > 8
isolate (source animal id): 138 | > 8
isolate (source animal id): 139 | > 8
isolate (source animal id): 140 | 1 (≈ 2.25 µM)
isolate (source animal id): 141 | > 8
isolate (source animal id): 142 | > 8
isolate (source animal id): 143 | > 8
isolate (source animal id): 144 | > 8
isolate (source animal id): 145 | > 8
isolate (source animal id): 146 | > 8
isolate (source animal id): 147 | > 8
isolate (source animal id): 148 | > 8
isolate (source animal id): 149 | > 8
isolate (source animal id): 150 | > 8
isolate (source animal id): 151 | > 8
isolate (source animal id): 152 | > 8
isolate (source animal id): 153 | > 8
isolate (source animal id): 154 | > 8
isolate (source animal id): 155 | > 8
isolate (source animal id): 156 | > 8
isolate (source animal id): 157 | > 8
isolate (source animal id): 158 | > 8
isolate (source animal id): 159 | > 8
isolate (source animal id): 160 | > 8
isolate (source animal id): 161 | > 8
isolate (source animal id): 162 | > 8
isolate (source animal id): 163 | > 8
isolate (source animal id): 164 | > 8
isolate (source animal id): 165 | > 8
isolate (source animal id): 166 | > 8
isolate (source animal id): 167 | > 8
isolate (source animal id): 168 | 1 (≈ 2.25 µM)
isolate (source animal id): 169 | 1 (≈ 2.25 µM)
isolate (source animal id): 170 | > 8
isolate (source animal id): 171 | 1 (≈ 2.25 µM)
isolate (source animal id): 172 | 1 (≈ 2.25 µM)
isolate (source animal id): 173 | > 8
isolate (source animal id): 174 | > 8
isolate (source animal id): 175 | > 8
isolate (source animal id): 176 | > 8
isolate (source animal id): 177 | > 8
isolate (source animal id): 178 | > 8
isolate (source animal id): 179 | 1 (≈ 2.25 µM)
isolate (source animal id): 180 | > 8
isolate (source animal id): 181 | > 8
isolate (source animal id): 182 | > 8
isolate (source animal id): 183 | > 8
isolate (source animal id): 184 | > 8
isolate (source animal id): 185 | > 8
isolate (source animal id): 186 | 1 (≈ 2.25 µM)
isolate (source animal id): 187 | > 8
isolate (source animal id): 188 | > 8

C=C[C@]1(C)C[C@@H](OC(=O)CSCCN(CC)CC)[C@]2(C)[C@H](C)CC[C@]3(CCC(=O)[C@H]32)[C@@H](C)[C@@H]1O [Tiamulin]
Settings | minimum inhibitory concentration [µg/mL]
isolate (source animal id): 8 | 32 (≈ 64.8 µM)
isolate (source animal id): 9 | > 32
isolate (source animal id): 10 | > 32
isolate (source animal id): 11 | > 32
isolate (source animal id): 12 | > 32
isolate (source animal id): 13 | > 32
isolate (source animal id): 14 | > 32
isolate (source animal id): 15 | > 32
isolate (source animal id): 16 | > 32
isolate (source animal id): 98 | > 32
isolate (source animal id): 99 | > 32
isolate (source animal id): 100 | 32 (≈ 64.8 µM)
isolate (source animal id): 101 | > 32
isolate (source animal id): 102 | > 32
isolate (source animal id): 103 | > 32
isolate (source animal id): 104 | > 32
isolate (source animal id): 105 | > 32
isolate (source animal id): 106 | > 32
isolate (source animal id): 107 | > 32
isolate (source animal id): 108 | > 32
isolate (source animal id): 109 | > 32
isolate (source animal id): 110 | > 32
isolate (source animal id): 111 | > 32
isolate (source animal id): 112 | 32 (≈ 64.8 µM)
isolate (source animal id): 113 | > 32
isolate (source animal id): 114 | > 32
isolate (source animal id): 115 | > 32
isolate (source animal id): 116 | 32 (≈ 64.8 µM)
isolate (source animal id): 117 | > 32
isolate (source animal id): 118 | > 32
isolate (source animal id): 119 | > 32
isolate (source animal id): 120 | > 32
isolate (source animal id): 121 | > 32
isolate (source animal id): 122 | > 32
isolate (source animal id): 123 | > 32
isolate (source animal id): 124 | 32 (≈ 64.8 µM)
isolate (source animal id): 125 | 16 (≈ 32.4 µM)
isolate (source animal id): 126 | > 32
isolate (source animal id): 127 | > 32
isolate (source animal id): 128 | 32 (≈ 64.8 µM)
isolate (source animal id): 129 | 32 (≈ 64.8 µM)
isolate (source animal id): 130 | > 32
isolate (source animal id): 131 | > 32
isolate (source animal id): 132 | > 32
isolate (source animal id): 133 | > 32
isolate (source animal id): 134 | > 32
isolate (source animal id): 135 | > 32
isolate (source animal id): 136 | > 32
isolate (source animal id): 137 | > 32
isolate (source animal id): 138 | 32 (≈ 64.8 µM)
isolate (source animal id): 139 | > 32
isolate (source animal id): 140 | > 32
isolate (source animal id): 141 | > 32
isolate (source animal id): 142 | > 32
isolate (source animal id): 143 | > 32
isolate (source animal id): 144 | > 32
isolate (source animal id): 145 | > 32
isolate (source animal id): 146 | > 32
isolate (source animal id): 147 | 32 (≈ 64.8 µM)
isolate (source animal id): 148 | > 32
isolate (source animal id): 149 | > 32
isolate (source animal id): 150 | > 32
isolate (source animal id): 151 | > 32
isolate (source animal id): 152 | 32 (≈ 64.8 µM)
isolate (source animal id): 153 | > 32
isolate (source animal id): 154 | > 32
isolate (source animal id): 155 | 32 (≈ 64.8 µM)
isolate (source animal id): 156 | > 32
isolate (source animal id): 157 | > 32
isolate (source animal id): 158 | > 32
isolate (source animal id): 159 | > 32
isolate (source animal id): 160 | > 32
isolate (source animal id): 161 | > 32
isolate (source animal id): 162 | > 32
isolate (source animal id): 163 | > 32
isolate (source animal id): 164 | > 32
isolate (source animal id): 165 | > 32
isolate (source animal id): 166 | > 32
isolate (source animal id): 167 | > 32
isolate (source animal id): 168 | 32 (≈ 64.8 µM)
isolate (source animal id): 169 | > 32
isolate (source animal id): 170 | 32 (≈ 64.8 µM)
isolate (source animal id): 171 | > 32
isolate (source animal id): 172 | > 32
isolate (source animal id): 173 | > 32
isolate (source animal id): 174 | > 32
isolate (source animal id): 175 | > 32
isolate (source animal id): 176 | > 32
isolate (source animal id): 177 | > 32
isolate (source animal id): 178 | > 32
isolate (source animal id): 179 | > 32
isolate (source animal id): 180 | > 32
isolate (source animal id): 181 | > 32
isolate (source animal id): 182 | > 32
isolate (source animal id): 183 | > 32
isolate (source animal id): 184 | > 32
isolate (source animal id): 185 | > 32
isolate (source animal id): 186 | > 32
isolate (source animal id): 187 | 32 (≈ 64.8 µM)
isolate (source animal id): 188 | > 32
